According to patent US8263821B2, “Non-invasive real-time in vivo bioluminescence imaging of local CaÂ2+ dynamics in living organisms” (priority 2004, dated 2012):

Columns and labels:
[1] = system: Ca2+ oscillations in somatosensory cortex slices; test: Mitochondrial Ca2+ oscillations (bioluminescence) in organotypic cortical slices from mtGA transgenic mice; assay type: cell-based, mouse; settings: D-APV 50 μM; slices from P4 mtGA mice, 4-5 days in culture
[2] = system: cortical neurons; test: Single-cell Ca2+ induced bioluminescence in cortical neurons transfected with GA; assay type: cell-based; settings: GA reconstituted with h coelenterazine
Protocol: Cultures were plated on to glass-bottomed dishes and mounted to a stage adapter on a fully automated inverted microscope mounted in a black-box. GFP-Aequorin was reconstituted with 2.5-5 μM coelenterazine for 30 minutes at 37° C. Incubation of cells with coelenterazine that had been transfected with SynGA was undertaken at room temperature to reduce the consumption of the photoprotein during the reconstitution process. Cells were perfused with tyrodes buffer. Prior to bath application of NMDA, cells were perfused for 1 minute without Mg^2+. All recordings were made at room temperature (22-25° C.). […]
The fluorescence/bioluminescence wide field microscopy system was custom built by ScienceWares, Inc. The system includes a fully automated inverted microscope (200M, Zeiss Germany) and is housed in a light-tight dark box. […] Low level light emission (photon rate <100 kHz), was collected using an Image Photon Detector (IPD 3, Photek Ltd.) connected to the baseport of the microscope, which assigns an X, Y coordinate and time point for each detected photon (Miller et al., 1994). The system is fully controlled by the data acquisition software, which also converts single photon events into an image that can be superimposed with brightfield or fluorescence images made by a connected CCD camera to the C-port (Coolsnap HQ, Roper Scientific). […]

N[C@H](CCCP(=O)(O)O)C(=O)O [D-APV]
block of Ca2+ oscillations generated by removal of Mg2+ from the buffer [1]: completely and reversibly blocked

[Cl-].[K+] [KCl]
Ca2+ induced bioluminescence signal after stimulation ([2]; KCl 90 mM): robust signal

CN[C@H](CC(=O)O)C(=O)O [NMDA]
Ca2+ induced bioluminescence signal after stimulation ([2]; NMDA 100 μM): robust signal
